Holding throughout (format): cell-based
For one experiment, the target named is T1, BmOR3–BmOrco (Bombyx mori, UniProt Q5FBE0).
T1 sequence (Q5FBE0 1-439): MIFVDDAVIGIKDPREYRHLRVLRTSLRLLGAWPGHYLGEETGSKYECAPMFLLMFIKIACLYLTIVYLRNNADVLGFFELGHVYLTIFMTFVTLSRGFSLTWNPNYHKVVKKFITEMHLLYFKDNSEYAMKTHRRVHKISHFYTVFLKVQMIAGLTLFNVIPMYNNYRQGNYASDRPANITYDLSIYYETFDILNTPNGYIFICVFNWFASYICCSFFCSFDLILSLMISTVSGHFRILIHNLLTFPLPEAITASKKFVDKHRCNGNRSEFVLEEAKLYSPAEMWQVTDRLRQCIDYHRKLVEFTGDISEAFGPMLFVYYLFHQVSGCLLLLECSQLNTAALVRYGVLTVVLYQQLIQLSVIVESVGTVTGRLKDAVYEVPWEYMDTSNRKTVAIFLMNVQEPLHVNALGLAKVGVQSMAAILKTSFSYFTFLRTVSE
T1 sequence (Q7YT34 1-472 partner): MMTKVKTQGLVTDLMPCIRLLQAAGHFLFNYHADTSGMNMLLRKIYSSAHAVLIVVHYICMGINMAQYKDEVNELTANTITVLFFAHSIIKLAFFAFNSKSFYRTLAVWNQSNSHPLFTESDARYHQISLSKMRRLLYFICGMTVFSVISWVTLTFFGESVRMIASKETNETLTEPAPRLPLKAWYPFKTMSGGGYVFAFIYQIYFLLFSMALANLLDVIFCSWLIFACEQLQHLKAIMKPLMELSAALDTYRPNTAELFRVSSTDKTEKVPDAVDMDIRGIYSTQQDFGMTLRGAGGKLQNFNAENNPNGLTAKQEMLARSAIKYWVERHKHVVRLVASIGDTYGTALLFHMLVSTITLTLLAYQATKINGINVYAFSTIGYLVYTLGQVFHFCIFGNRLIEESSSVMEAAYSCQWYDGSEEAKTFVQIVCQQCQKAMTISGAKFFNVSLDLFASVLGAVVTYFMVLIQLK
Nature of the experiment: BmOR3–BmOrco intermolecular BRET assay. The settings on record: HEK293 cells; 5 min stimulation; read-out: EC50 of BRET signal increase between Rluc-BmOR3 and YFP-BmOrco. The procedure: HEK293 cells were cotransfected with the N-terminal Rluc-tagged WT BmOR3 together with N-terminal YFP-fused BmOrco plasmids or their mutants. Twenty-four hours after transfection, cells were distributed into a 96-well microplate. After another 24 h, the cells were stimulated with different concentrations of bombykal for 5 min. BRET between RLuc and YFP was measured using a Mithras LB 940 multimode reader after the addition of the RLuc substrate coelenterazine h (5 μM). The BRET signal was calculated as the ratio of emission of YFP (530 nm) to RLuc (485 nm). For the saturation BRET between Rluc-BmOrco and YFP-BmOR3, HEK293 cells were transfected with a fixed amount of Rluc-BmOrco and increasing amounts of YFP-BmOR3. The BRET signal between RLuc and YFP was directly measured after the addition of the substrate coelenterazine h (5 μM).

Experiment [1] has as its target T2, BmOR3 (Bombyx mori, UniProt Q5FBE0). Nature of the experiment: G protein dissociation BRET assay (TRUPATH probes). On the procedure: The Gi, Gq, Go, Gs, and Gz dissociation BRET probes were from the TRUPATH kit, which was a gift from Bryan Roth (Addgene kit #1000000163 ([31])). HEK293 cells were cotransfected with BmOR3 along with specific G protein BRET probes. After 24 h, the cells were reseeded in 96-well microplates and incubated for another 24 h. The cells were washed twice with Hank's balanced salt solution and stimulated with bombykal at different concentrations for 2 min. The light emission of Rluc8 (400 nm) and GFP10 (510 nm) was measured after the addition of the substrate coelenterazine 400a (5 μM) using a Mithras LB 940 multimode reader (Berthold Technologies). The BRET signal was calculated as the ratio of light emission at 510/400 nm.
A general note: In BRET a luciferase serves as donor, and the signal depends on an acceptor being close.

Experiment [2] has as its target T2, BmOR3. Nature of the experiment: Western blotting of ERK and SRC phosphorylation. As to conditions: BmOR3-expressing HEK293 cells; 1 μM, 15 min; abrogated in β-arrestin siRNA-transfected cells. On the procedure: HEK293 cells transfected with BmOR3 in the absence or presence of βarrestin1/2 siRNA were starved for 12 h at 37 °C before stimulated with 1 μM bombykal for 15 min. The cells were lysed in ice-cold lysis buffer (50 mM Tris-HCl, pH 7.4, 150 mM NaCl, 1 mM NaF, 1% Triton, 2 mM EDTA, 1% NP-40, 1% protease and phosphatase inhibitor cocktail), and the supernatant was collected after centrifugation. Proteins were separated by PAGE and transferred to PVDF membrane. After blocking in PBS containing 5% bovine serum albumin and 0.1% Tween-20, the membrane was incubated with the primary antibody at 4 °C overnight, followed by incubation with HRP conjugate–secondary antibody at RT for an hour. The signals were detected with the ECL system (Thermo Fisher Scientific). Primary antibodies were as follows: anti-ERK (Santa Cruz, Cat. No. sc-154); anti-pERK (Proteintech, Cat. No. 15361-1-AP); anti-SRC (Cell Signaling Technology, Cat. No. 2109S); anti-pSRC(Y416) (Cell Signaling Technology, Cat. No. 2101S); anti-beta actin (ORIGENE, Cat. No. TA811000); anti-βarrestin1(Proteintech, Cat. No. 15361-1-AP); anti-βarrestin2 (Proteintech, Cat. No. 10171-1-AP).

Experimental findings from PMC8477192, “An ionic lock and a hydrophobic zipper mediate the coupling between an insect pheromone receptor BmOR3 and downstream effectors” (The Journal of Biological Chemistry, 2021) are described below.

Each structure is given as a SMILES string.

Regarding `CCC/C=C\C=C\CCCCCCCCC=O` [bombykal], the EC50 on BmOR3–BmOrco was 0.036 ± 0.00389 µM; on BmOR3 [1] (HEK293 cells, Gi BRET probes, 2 min stimulation, read-out: EC50 of Gi activation through BmOR3 (decrease of the BRET signal)), 0.0164 ± 0.00504 µM. Further, the Go activation entry on BmOR3 [1] (HEK293 cells transfected with BmOR3, Go probes) is given as “did not induce”. The Gq activation result at BmOR3 [1] (HEK293 cells transfected with BmOR3, Gq probes) was “did not induce”. At BmOR3 [1] (HEK293 cells transfected with BmOR3, Gs probes), the Gs activation result is given as “did not induce”. Besides, the Gz activation entry at BmOR3 [1] (HEK293 cells transfected with BmOR3, Gz probes) is listed as “did not induce”. For the same compound, on BmOR3 [2], the “phosphorylation level of ERK” value is “significantly elevated”. Further, the “phosphorylation level of SRC” value at BmOR3 [2] is on record as “significantly elevated”.

What is called EC50 is the concentration needed to bring the measured effect to its halfway point.
